Among the data in patent US10316056B2, “Chemical compounds and use thereof for improving muscular quality” (BIOPHYTIS, priority 2014, dated 2019) are activity and mrna remaining values, retold here.

Test [1] deals with S6 kinase (S6K1) phosphorylation in C2C12 cells. The experiment in a line: Phosphorylation of the S6 kinase in C2C12 cells (ELISA pS6K T389), protein synthesis. In kind it is cell-based, mouse. To be noted: Mus musculus, C2C12, 2 h; for activity at 10 µM: read-out: Protein synthesis (percentage increase in S6K phosphorylation in muscle cells); for activity: test compounds and 20E reference (10 μM), read-out: S6K1 phosphorylation level. As to the method:
After several experiments in which the C2C12 cells differentiated into myotubes were incubated in the presence of IGF-1 or 20E for 2 h 30 or 6 h, two screening tests were developed. Thus, the phosphorylation of the S6 protein kinase and the expression of the myostatin gene were studied in order to determine their modulation by a growth hormone or an ecdysone and to characterize these modulations from a statistical point of view.
The C2C12 myoblast cells (ATCC CRL-1772) are seeded into 6-well plates at a density of 170 000 cells per well and cultured in a DMEM medium containing glucose in a proportion of 4.5 g/l and supplemented with fetal calf serum (10%) and with antibiotics (penicillin and streptomycin). Forty-eight hours later, the myoblasts are induced to differentiate by partial serum depletion (2% instead of 10%) for 5 days. The cells are then placed in a medium which is glucose-depleted (DMEM containing 1 g/l of glucose) and serum-free in the presence of the test molecules or of the references (100 ng/ml IGF-1 or 10 μM 20E) for 2 h. At the end of the experiment, the cells are lysed in a commercial lysis buffer (Invitrogen FNN0011) supplemented with a commercial mixture of anti-proteases (Roche 05056489001). After centrifugation, the cytoplasmic fraction containing the soluble proteins is kept and the protein concentration is determined using a commercial kit (Biorad 500-0114), the principle of which is composed of assaying by the Lowry method. The assaying of the S6 kinase phosphorylation is carried out using a commercial ELISA (Enzyme Linked ImmunoSorbent Assay) kit (Cell signaling 7063). Briefly, 50 μg of protein lysate are deposited in the wells of a 96-well microplate and incubated overnight at 4° C. with the solution of antigen specific for the pS6 kinase threonine 389 antibody. The binding of the antigen to the bottom of the wells is done electrostatically. The solution of antibody to be assayed (pS6K T389) is then incubated at 37° C. in the wells for 2 hours. The antibodies bind specifically to the antigen. The wells are then washed with washing buffer in order to remove the antigen-specific primary antibodies to be assayed which are in excess. The third step consists in binding the detection antibody. The solution of detection antibodies is incubated at 37° C. in the wells for 1 hour. The wells are then washed in order to remove the excess detection antibodies. It should be noted that the detection antibodies are coupled to an enzyme which, in the presence of its substrate, converts it into a reaction product that can be detected and measured by virtue of the appearance of a coloration. […] The appearance of a blue coloration in the substrate indicates the presence of the antibody to be assayed. In order to prevent any saturation phenomenon, a stop solution (generally containing […]) is added and brings about a change in coloration, which goes from blue to yellow. The strength thereof is proportional to the amount of enzyme present and thus to the concentration of antibody sought. The strength of the signal is measured using spectrophotometry at a wavelength of 450 nm.
In general terms: In an ELISA, binding on a coated surface is turned into a signal by an enzyme label.

Test [2] has as its system myostatin gene expression in C2C12 cells. The experiment in a line: Inhibition of myostatin expression in C2C12 cells (qPCR). Format: cell-based. To be noted: Mus musculus, percentage myostatin gene expression in cells in contact with the compounds related to control cells, C2C12, 6 h. The method, then: After several experiments in which the C2C12 cells differentiated into myotubes were incubated in the presence of IGF-1 or 20E for 2 h 30 or 6 h, two screening tests were developed. Thus, the phosphorylation of the S6 protein kinase and the expression of the myostatin gene were studied in order to determine their modulation by a growth hormone or an ecdysone and to characterize these modulations from a statistical point of view. The C2C12 myoblast cells (ATCC CRL-1772) are seeded into 24-well plates at a density of 30 000 cells per well and cultured in a DMEM medium containing glucose in a proportion of 4.5 g/l and supplemented with fetal calf serum (10%) and with antibiotics (penicillin and streptomycin). Forty-eight hours later, the myoblasts are induced to differentiate by partial serum depletion (2% instead of 10%) for 5 days. The cells are then placed in a medium which is glucose-depleted (DMEM containing 1 g/l of glucose) and serum-free in the presence of the test molecules or of the references (100 ng/ml IGF-1 or 10 μ[…]) for 6 h. At the end of the experiment, the messenger RNAs (mRNAs) are extracted using the conventional methodology based on phenol and chloroform. Briefly, the cells are lysed in a Trizol solution (Sigma T9424) containing a strong acid and phenol. The mRNAs are separated from the proteins by addition of chloroform and then centrifugation. They are then precipitated from isopropanol and then suspended at a concentration of 1 μg/μl in an […] ultrapure water. 1 μg of mRNA is then converted by reverse transcription into complementary DNA by the AMV enzyme in the presence of a primer and of a mixture of nucleotides according to the protocol given by the supplier (Applied Biosystems 4368814). […] The qPCRs are carried out on a 7900HT Fast real-Time PCR detection system (Applied Biosystems). The programming conditions are standard and consist of 1 cycle at 95° C. for 15 min, followed by 40 cycles at 95° C. for 15 s and at 60° C. for 1 min and the program ends with a melt curve step between 60° C. and 95° C. […] Fluorescent probes bind to the double-stranded DNA and are fluorescent only once bound to the DNA. A fluorescence threshold is established by the machine's program. When the amount of DNA allows the fluorescent probe to exceed this threshold, a PCR cycle number, called “Ct” for “Cycle Threshold”, is obtained. It is this value which forms the basis of the calculations to quantify the DNA relatively. A ratio R is established between the amount of starting DNA of a sample and that of a control, which has not undergone treatment (i.e. […] R=2^-ΔΔCt).
For orientation: Real-time PCR tracks product formation cycle by cycle.

In the case of `C=CCCO/N=C(/C)[C@H]1CC[C@@]2(O)C3=CC(=O)[C@@H]4C[C@@H](O)[C@@H](O)C[C@]4(C)C3CC[C@]12C` (stereo partly drawn) [Compound 28, (2S,3R,5R,10R,13R,14S,17S)-17-(N-but-3-enoxy-C-methylcarbonimidoyl)-2,3,14-trihydroxy-10,13-dimethyl-2,3,4,5,9,11,12,15,16,17-decahydro-1H-cyclopenta[a]phenanthren-6-one], in test [1], the activity at 10 µM was over 130% and the activity was 130 to 140%. The mrna remaining at 10 µM in test [2] was under 70%.
The matching figures for `CCN(CC)CCO/N=C(/C)[C@H]1CC[C@@]2(O)C3=CC(=O)[C@@H]4C[C@@H](O)[C@@H](O)C[C@]4(C)C3CC[C@]12C` (stereo partly drawn) [Compound 32, (2S,3R,5R,10R,13R,14S,17S)-17-(N-(2-diethylaminoethoxy)-C-methylcarbonimidoyl)-2,3,14-trihydroxy-10,13-dimethyl-2,3,4,5,9,11,12,15,16,17-decahydro-1H-cyclopenta[a]phenanthren-6-one]: 110 to 129%, about 120% and under 70%.
`COCCN(C(=O)COC)C(C)[C@H]1CC[C@@]2(O)C3=CC(=O)[C@@H]4C[C@@H](O)[C@@H](O)C[C@]4(C)C3CC[C@]12C` (stereo partly drawn) [Compound 41, 2-methoxy-N-(2-methoxyethyl)-N-[1-[(2S,3R,5R,10R,13R,14S,17S)-2,3,14-trihydroxy-10,13-dimethyl-6-oxo-2,3,4,5,9,11,12,15,16,17-decahydro-1H-cyclopenta[a]phenanthren-17-yl]ethyl]acetamide]: in test [1], the activity at 10 µM is 110 to 129% and the activity is about 120%. The same compound gave a mrna remaining at 10 µM in test [2] of under 70%.
Take `COCCNC(C)[C@H]1CC[C@@]2(O)C3=CC(=O)[C@@H]4C[C@@H](O)[C@@H](O)C[C@]4(C)C3CC[C@]12C` (stereo partly drawn) [Compound 42, (2S,3R,5R,10R,13R,14S,17S)-2,3,14-trihydroxy-17-[1-(2-methoxyethylamino)ethyl]-10,13-dimethyl-2,3,4,5,9,11,12,15,16,17-decahydro-1H-cyclopenta[a]phenanthren-6-one]: in test [1], the activity at 10 µM was over 130% and the activity lay in the range of 130 to 140%.
On to `CC(NCc1cccnc1)[C@H]1CC[C@@]2(O)C3=CC(=O)[C@@H]4C[C@@H](O)[C@@H](O)C[C@]4(C)C3CC[C@]12C` (stereo partly drawn) [Compound 43, (2S,3R,5R,10R,13R,14S,17S)-2,3,14-trihydroxy-10,13-dimethyl-17-[1-(3-pyridylmethylamino)ethyl]-2,3,4,5,9,11,12,15,16,17-decahydro-1H-cyclopenta[a]phenanthren-6-one], for which, in test [1], the activity at 10 µM lay in the range of 110 to 129% and the activity was about 120%. The mrna remaining at 10 µM in test [2] is under 70%.
`C=CCCC(=O)N(CCOC)C(C)[C@H]1CC[C@@]2(O)C3=CC(=O)[C@@H]4C[C@@H](O)[C@@H](O)C[C@]4(C)C3CC[C@]12C` (stereo partly drawn) [Compound 52, N-(2-methoxyethyl)-N-[1-[(2S,3R,5R,10R,13R,14S,17S)-2,3,14-trihydroxy-10,13-dimethyl-6-oxo-2,3,4,5,9,11,12,15,16,17-decahydro-1H-cyclopenta[a]phenanthren-17-yl]ethyl]pent-4-enamide]: in test [1], the activity at 10 µM was 110 to 129% and the activity was about 120%. This compound showed a mrna remaining at 10 µM in test [2] of under 70%.
For the compound `COCC(=O)N(CC1CCCO1)C(C)[C@H]1CC[C@@]2(O)C3=CC(=O)[C@@H]4C[C@@H](O)[C@@H](O)C[C@]4(C)C3CC[C@]12C` (stereo partly drawn) [Compound 62, 2-methoxy-N-(tetrahydrofuran-2-ylmethyl)-N-[1-[(2S,3R,5R,10R,13R,14S,17S)-2,3,14-trihydroxy-10,13-dimethyl-6-oxo-2,3,4,5,9,11,12,15,16,17-decahydro-1H-cyclopenta[a]phenanthren-17-yl]ethyl]acetamide], in test [1], the activity at 10 µM is over 130% and the activity fell in the range of 130 to 140%. This compound gave a mrna remaining at 10 µM in test [2] of under 70%.
As for `C[C@@H]1CN(CC(=O)[C@H]2CC[C@@]3(O)C4=CC(=O)[C@@H]5C[C@@H](O)[C@@H](O)C[C@]5(C)C4CC[C@]23C)C[C@H](C)O1` (stereo partly drawn) [Compound 83, (2S,3R,5R,10R,13R,14S,17S)-17-[2-[(2S,6R)-2,6-dimethylmorpholin-4-yl]acetyl]-2,3,14-trihydroxy-10,13-dimethyl-2,3,4,5,9,11,12,15,16,17-decahydro-1H-cyclopenta[a]phenanthren-6-one], the mrna remaining at 10 µM in test [2] is 71 to 85%.
Same read-out and setting: as for `COC(CN(C)CC(=O)[C@H]1CC[C@@]2(O)C3=CC(=O)[C@@H]4C[C@@H](O)[C@@H](O)C[C@]4(C)C3CC[C@]12C)OC` (stereo partly drawn) [Compound 85, (2S,3R,5R,10R,13R,14S,17S)-17-[2-(2,2-dimethoxyethyl(methyl)amino)acetyl]-2,3,14-trihydroxy-10,13-dimethyl-2,3,4,5,9,11,12,15,16,17-decahydro-1H-cyclopenta[a]phenanthren-6-one], the figure is 71 to 85%; as for `C[C@]12C[C@H](O)[C@H](O)C[C@H]1C(=O)C=C1C2CC[C@]2(C)[C@@H](C(O)CN3CCC(CCO)CC3)CC[C@@]12O` (stereo partly drawn) [Compound 99, (2S,3R,5R,10R,13R,14S,17S)-2,3,14-trihydroxy-17-[1-hydroxy-2-[4-(2-hydroxyethyl)-1-piperidyl]ethyl]-10,13-dimethyl-2,3,4,5,9,11,12,15,16,17-decahydro-1H-cyclopenta[a]phenanthren-6-one], under 70%; as for `CO/N=C1\C=C2C(CC[C@]3(C)[C@@H](/C(CN4CCOCC4)=N\OC)CC[C@@]23O)[C@@]2(C)C[C@H](O)[C@H](O)C[C@@H]12` (stereo partly drawn) [Compound 101, (2S,3R,5R,6E,10R,13R,14S,17S)-6-methoxyimino-17-(N-methoxy-C-(morpholinomethyl)carbonimidoyl)-10,13-dimethyl-2,3,4,5,9,11,12,15,16,17-decahydro-1H-cyclopenta[a]phenanthrene-2,3,14-triol], under 70%.
